According to patent US6403765B1, “Truncated Apaf-1 and methods of use thereof” (Thomas Jefferson University, priority 1998, dated 2002):
“Also recorded” adds a separate entry of the source.

What was measured:
procaspase-9 = test: Cytochrome c/dATP-dependent processing of procaspase-9 in 293 cellular S100 extract; assay type: biochemical; conditions: 293 S100 extract, cytochrome c plus dATP
Procedure: To study processing of procaspase-9 in the cytochrome c/Apaf-1-dependent pathway, WT and the Asp to Ala mutants of procaspase-9 were incubated with a cellular S100 extract in the presence or absence of cytochrome c and dATP. […] Samples were then analyzed by SDS-PAGE and autoradiography.
(§1) To confirm this, a time course analysis of procaspase-9 and procaspase-3 processing was performed in cellular S100 extracts from 293 and MCF-7 cells. […] At the indicated times the reactions were stopped and then analyzed by SDS-PAGE and autoradiography (procaspase-9 panels) or Western blot analysis using anti-caspase-3 p20 polyclonal antibody (procaspase-3 panels). Small arrows indicate a non-specific band detected by the anti-caspase-3 antibody.
(§2) In FIG. 18, 293 cellular S100 extracts supplemented with ^35S-labeled procaspase-9 (upper panel) or procaspase-3 (lower panel) were incubated with (lanes 3-7) or without (lane 2) cytochrome c plus dATP in the presence of increasing amounts of purified recombinant procaspase-9-C287A mutant for 1 hour at 30° C. and then analyzed by SDS-PAGE and autoradiography. […] Consequently, the Apaf-1/caspase-9 pathway appears to be a central apoptotic pathway, on which most apoptotic signals converge.

procaspase-3 = test: Cytochrome c/dATP-dependent processing of procaspase-3 in 293 cellular S100 extract; assay type: biochemical; conditions: cytochrome c/dATP
Procedure: as §1
(§3) In FIG. 8, ^35S-labeled procaspase-3, -6 or -7 were incubated with S100 extracts from 293 cells in the presence or absence of cytochrome c/dATP or DEVD-CHO, or both and analyzed by SDS-PAGE followed by autoradiography. However, when DEVD-CHO was included, processing of procaspase-6 (lane 6), but not procaspase-3 (lane 3) or -7 (lane 9) was inhibited. […] Also, since caspase-7 cannot process procaspase-6 (Srinivasula et al., J. Biol. Chem. 271:27099-27106, 1996), caspase-3 is the one responsible for processing of procaspase-6 in the cytochrome c plus dATP-dependent pathway.
as §2

procaspase-6 = test: Cytochrome c/dATP-dependent processing of procaspase-6 in 293 cellular S100 extract; assay type: biochemical; conditions: 35S-labeled procaspase-6, 293 S100 extract, FIG. 8
Procedure: as §3

procaspase-7 = test: Cytochrome c/dATP-dependent processing of procaspase-7 in 293 cellular S100 extract; assay type: biochemical; conditions: 35S-labeled procaspase-7, 293 S100 extract, FIG. 8
Procedure: as §3

T7-tagged Apaf-530 = molecular target: T1, T7-tagged Apaf-530 (human, UniProt O14727 1-541); test: co-immunoprecipitation from co-transfected 293 cells: anti-Flag IP, anti-T7 immunoblot
T1 construct: Expressed in co-transfected 293 cells; also called T7-Apaf-530
T1 sequence: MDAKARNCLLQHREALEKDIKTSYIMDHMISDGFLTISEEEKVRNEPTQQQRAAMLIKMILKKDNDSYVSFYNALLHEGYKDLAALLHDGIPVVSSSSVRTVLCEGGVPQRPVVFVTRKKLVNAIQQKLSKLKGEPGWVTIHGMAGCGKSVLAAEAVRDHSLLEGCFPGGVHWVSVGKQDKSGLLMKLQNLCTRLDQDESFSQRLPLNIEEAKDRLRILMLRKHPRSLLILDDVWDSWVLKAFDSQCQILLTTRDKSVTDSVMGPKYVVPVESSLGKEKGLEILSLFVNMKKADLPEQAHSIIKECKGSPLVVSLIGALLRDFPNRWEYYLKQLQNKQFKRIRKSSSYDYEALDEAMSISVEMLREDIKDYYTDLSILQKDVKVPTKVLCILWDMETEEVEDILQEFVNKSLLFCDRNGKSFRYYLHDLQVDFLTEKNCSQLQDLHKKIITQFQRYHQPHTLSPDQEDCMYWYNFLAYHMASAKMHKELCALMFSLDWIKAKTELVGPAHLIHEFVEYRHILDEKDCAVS
Procedure: (§4) The immunoprecipitates were analyzed by Western blotting with an anti-T7 antibody.
(§5) After 36 hours, extracts were prepared and immunoprecipitated with a monoclonal antibody to the Flag epitope. The immunoprecipitates (upper panel) were analyzed by SDS-PAGE and immunoblotted with a horseradish peroxides-conjugated T7 antibody.
(§6) In vivo interaction experiments between Apaf-1 variants and Bcl-x_L were performed. […] After 36 hours, extracts were prepared and immunoprecipitated with a monoclonal antibody to the Flag epitope. The immunoprecipitates (FIG. 16, upper panel) were analyzed by SDS-PAGE and immunoblotted with a horseradish peroxidase-conjugated T7 antibody.

T7-tagged Bcl-xL = molecular target: T2, T7-tagged Bcl-xL (UniProt Q07817 1-233); test: as above
T2 construct: Expressed in co-transfected 293 cells
T2 sequence (Q07817 whole entry): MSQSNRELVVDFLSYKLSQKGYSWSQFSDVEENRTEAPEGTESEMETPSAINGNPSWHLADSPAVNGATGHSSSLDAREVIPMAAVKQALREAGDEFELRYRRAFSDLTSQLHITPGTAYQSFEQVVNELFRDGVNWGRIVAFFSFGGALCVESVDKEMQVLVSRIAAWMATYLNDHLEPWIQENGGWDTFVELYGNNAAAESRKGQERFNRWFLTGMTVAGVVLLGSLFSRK
Procedure: as §4, §5, §6

[1] = molecular target: T3, Apaf-1 (endogenous, in 293 cellular S100 extract, with cytochrome c plus dATP)
T3 chain: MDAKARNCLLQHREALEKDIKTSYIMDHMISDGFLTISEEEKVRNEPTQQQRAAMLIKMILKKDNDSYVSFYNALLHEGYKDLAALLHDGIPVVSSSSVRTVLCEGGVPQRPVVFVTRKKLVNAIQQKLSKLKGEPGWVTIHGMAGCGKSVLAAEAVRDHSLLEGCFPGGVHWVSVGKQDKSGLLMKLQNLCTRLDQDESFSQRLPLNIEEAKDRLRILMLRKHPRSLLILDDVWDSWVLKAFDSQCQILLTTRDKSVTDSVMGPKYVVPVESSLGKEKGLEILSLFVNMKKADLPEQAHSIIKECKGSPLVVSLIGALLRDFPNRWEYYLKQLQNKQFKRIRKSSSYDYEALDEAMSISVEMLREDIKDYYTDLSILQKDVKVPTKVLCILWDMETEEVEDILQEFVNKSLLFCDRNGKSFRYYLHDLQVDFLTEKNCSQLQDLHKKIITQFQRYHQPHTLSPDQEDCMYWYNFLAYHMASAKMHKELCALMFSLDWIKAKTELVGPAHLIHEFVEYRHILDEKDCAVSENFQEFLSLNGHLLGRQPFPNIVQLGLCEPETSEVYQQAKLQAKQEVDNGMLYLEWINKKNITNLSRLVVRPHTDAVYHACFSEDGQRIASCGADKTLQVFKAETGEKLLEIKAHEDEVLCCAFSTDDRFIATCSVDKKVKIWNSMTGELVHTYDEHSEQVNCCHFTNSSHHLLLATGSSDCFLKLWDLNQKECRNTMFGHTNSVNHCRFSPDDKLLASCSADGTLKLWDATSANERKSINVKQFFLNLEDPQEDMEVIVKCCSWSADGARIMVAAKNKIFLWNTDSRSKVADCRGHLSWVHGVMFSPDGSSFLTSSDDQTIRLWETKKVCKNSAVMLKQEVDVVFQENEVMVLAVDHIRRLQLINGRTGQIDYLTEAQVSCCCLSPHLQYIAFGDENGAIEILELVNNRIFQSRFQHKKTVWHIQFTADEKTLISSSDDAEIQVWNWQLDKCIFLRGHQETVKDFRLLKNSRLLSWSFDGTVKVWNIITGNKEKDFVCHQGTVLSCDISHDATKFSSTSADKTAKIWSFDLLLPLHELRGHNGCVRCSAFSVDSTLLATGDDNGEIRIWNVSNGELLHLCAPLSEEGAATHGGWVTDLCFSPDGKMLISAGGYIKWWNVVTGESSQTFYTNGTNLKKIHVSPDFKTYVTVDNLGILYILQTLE

[2] = molecular target: T4, recombinant Apaf-530 (Ni2+-affinity purified, bacterially expressed, C-terminal His6 tag)
T4 chain: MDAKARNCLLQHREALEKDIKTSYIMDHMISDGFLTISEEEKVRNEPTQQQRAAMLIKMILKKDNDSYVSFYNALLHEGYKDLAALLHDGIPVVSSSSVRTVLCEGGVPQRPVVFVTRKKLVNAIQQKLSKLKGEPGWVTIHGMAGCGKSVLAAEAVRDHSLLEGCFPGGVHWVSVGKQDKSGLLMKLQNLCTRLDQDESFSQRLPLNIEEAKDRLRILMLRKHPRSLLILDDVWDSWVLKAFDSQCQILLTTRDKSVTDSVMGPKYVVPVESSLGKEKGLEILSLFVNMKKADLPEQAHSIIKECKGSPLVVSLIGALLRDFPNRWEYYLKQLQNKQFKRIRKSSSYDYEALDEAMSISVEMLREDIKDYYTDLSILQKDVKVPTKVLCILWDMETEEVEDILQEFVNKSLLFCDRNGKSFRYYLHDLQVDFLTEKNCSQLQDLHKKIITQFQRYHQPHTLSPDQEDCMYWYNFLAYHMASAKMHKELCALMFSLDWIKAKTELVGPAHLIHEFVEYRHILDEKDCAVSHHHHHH

[3] = 293 S100 extract, Western blot, FIG. 5

Asp-Glu-Val-Asp-aldehyde [DEVD-CHO]
inhibition of procaspase-9 processing at Asp315 (autocatalytic generation of p35 fragment) (procaspase-9): not and did not block | inhibition of procaspase-9 processing at Asp330 (generation of p37 fragment) (procaspase-9): sensitive to inhibition; also recorded: blocked | inhibition of processing of procaspase-3 (procaspase-3; 35S-labeled procaspase-3, 293 S100 extract, FIG. 8): not | effect on processing of procaspase-3 (procaspase-3; [3]): slightly attenuated | inhibition of autoconversion of caspase-3-p20 to p19 (procaspase-3; [3]): blocked | inhibition of processing of procaspase-6 (procaspase-6): inhibited | inhibition of processing of procaspase-7 (procaspase-7): not

B1: Flag-tagged Apaf-97 (other, not shown: small tags and cut ends)
chain: MDAKARNCLLQHREALEKDIKTSYIMDHMISDGFLTISEEEKVRNEPTQQQRAAMLIKMILKKDNDSYVSFYNALLHEGYKDLAALLHDGIPVVSSS
notes: Expressed in co-transfected 293 cells; also called Flag-Apaf-97
binding result (T7-tagged Apaf-530): no binding | binding result (T7-tagged Bcl-xL): no binding

B2: purified recombinant procaspase-9-C287A mutant (protein)
chain: MDEADRRLLRRCRLRLVEELQVDQLWDALLSRELFRPHMIEDIQRAGSGSRRDQARQLIIDLETRGSQALPLFISCLEDTGQDMLASFLRTNRQAAKLSKPTLENLTPVVLRPEIRKPEVLRPETPRPVDIGSGGFGDVGALESLRGNADLAYILSMEPCGHCLIINNVNFCRESGLRTRTGSNIDCEKLRRRFSSLHFMVEVKGDLTAKKMVLALLELAQQDHGALDCCVVVILSHGCQASHLQFPGAVYGTDGCPVSVEKIVNIFNGTSCPSLGGKPKLFFIQAAGGEQKDHGFEVASTSPEDESPGSNPEPDATPFQEGLRTFDQLDAISSLPTPSDIFVSYSTFPGFVSWRDPKSGSWYVETLDDIFEQWAHSEDLQSLLLRVANAVSVKGIYKQMPGCFNFLRKKLFFKTS
cytochrome c/dATP-induced activation of procaspase-9 and procaspase-3 in the 293 S100 extract [1]: able to attenuate cytochrome c/dATP-induced activation of procaspase-9 and procaspase-3 in the 293 S100 extract in a dose-dependent manner | Apaf-530-induced activation of procaspase-9 in the in vitro reconstituted system [2]: A similar result was also obtained with the Apaf-530-induced activation of procaspase-9 in the in vitro reconstituted system (data not shown)
